US20250041285A1, “MODIFYING THE […] OF A GENE ENCODING AN CYCLOOXYGENASE ENZYME BY TREATING A HUMAN SUBJECT WITH A NITROXIDE” (priority 2021, published 2025)

Experiments:
PTGS1 (COX1) = test: Effects of Tempol on gene expression in cardiac tissue, chip-based microarray; type: in vivo; details: mice, Tempol 5 mg/g of food from 14 to 31 months after birth
Method: To assess the effects of Tempol on gene expression, Tempol was administered to experimental mice at a dose of 5 mg/g of food from 14 months to 31 months after birth. Mice receiving the same food without the addition of Tempol were used as a negative control. At the age of 31 months, the experimental animals were sacrificed and the hearts were surgically removed. The expression of a broad spectrum of genes in the cardiac tissue was assessed using chip-based microarray technology. Such chips are well known in the art and are widely used to assess gene expression.

COX1 = test: Treatment of human subject with Tempol, serum level of COX1; type: in vivo; details: 2000 mg per day for 180 days
Method: A 70-kilogram human subject over the age of 65 and having a cardiovascular disease is identified for an increased expression level of COX1. Or a 70-kilogram human subject over the age of 65 is known to have a cardiovascular disease and/or […] expression level of COX1. The human subject is administered a dose of 2000 mg of Tempol (or another nitroxide antioxidant) per day for 180 days. This may be administered in a single dose, or may be administered as a number of smaller doses over a 24-hour period: for example, four 500-mg doses at […]. Following treatment, the serum level of COX1, is decreased.
A 70-kilogram human subject at risk of developing colorectal cancer is identified for increased expression level of COX1. Or a 70-kilogram human subject is known to be at risk of developing colorectal cancer and/or have increased expression level of COX1. The human subject is administered a dose of 2000 mg of Tempol (or another nitroxide antioxidant) per day for 180 days. This may be administered in a single dose, or may be administered as a number of smaller doses over a 24-hour period: for example, four 500-mg doses at […]. Following treatment, the serum level of COX1, is decreased. […]
A 70-kilogram human subject having an infection (e.g., a bacterial, fungal, or viral infection) is identified for increased expression level of COX1. Or a 70-kilogram human subject is known to have an infection and/or have increased expression level of COX1. The human subject is administered a dose of 2000 mg of Tempol (or another nitroxide antioxidant) per day for 180 days. This may be administered in a single dose, or may be administered as a number of smaller doses over a 24-hour period: for example, four 500-mg doses at […]. Following treatment, the serum level of COX1, is decreased.

Compound: CC1(C)CC(O)CC(C)(C)N1[O] [Tempol, 4-hydroxy-2,2,6,6-tetramethylpiperidine-1-oxyl]
- Fold change (gene expression in cardiac tissue after Tempol administration) (PTGS1 (COX1); hearts at 31 months, vs same food without Tempol, P-value 0.006): −1.18
- COX1 expression in cardiac tissue (PTGS1 (COX1); microarray): statistically significant decrease in expression
- serum level of COX1 following treatment (COX1; Example 2: 70-kilogram human subject over the age of 65 with increased COX1 expression): decreased
- serum level of COX1 following treatment (COX1; Example 3: 70-kilogram human subject with increased COX1 expression): decreased
- serum level of COX1 following treatment (COX1; Example 4: 70-kilogram human subject over the age of 65 having a cardiovascular disease): decreased
- serum level of COX1 following treatment (COX1; Example 5: 70-kilogram human subject at risk of developing colorectal cancer): decreased
- serum level of COX1 following treatment (COX1; Example 6: 70-kilogram human subject at risk of developing an autoimmune disease (e.g., rheumatoid arthritis)): decreased
- serum level of COX1 following treatment (COX1; Example 7: 70-kilogram human subject at risk of developing a condition due to aging): decreased
- serum level of COX1 following treatment (COX1; Example 8: 70-kilogram human subject at risk of developing a neurodegenerative disease (e.g., Parkinson's Disease)): decreased
- serum level of COX1 following treatment (COX1; Example 9: 70-kilogram human subject having an infection (bacterial, fungal, or viral)): decreased
